# From patent US20060142397A1, “Use of a pparalpha agonist and metormin for decreasing the serum triglycerides” (priority 2002, published 2006)
# Read-outs that look alike come from different tables or passages of the source. Marks after values point to notes of the source that are not given here.
# What was measured:
# db/db mice = settings: for Triglycerides % var. T0/T15: 14 days gavage; for Triglycerides T0: T0 (baseline); for Triglycerides T0 / Triglycerides T15: mean ± SEM; for Triglycerides T15: T15 after 14 days gavage
# Procedure: Studies were designed to evaluate the effects of fenofibrate, a PPARα agonist, and metformin as a combination therapy, on triglycerides level in db/db mice.
# Male 11/12 weeks old […] J Rj-db (db/db) mice (Janvier, France) were housed in a temperature (19.5-24.5° C.), relative humidity (40-70%) and 12-12 h light-dark cycle (light 7:00 a.m. to 7:00 p.m.)-controlled room, with ad libitum access to filtered (0.22 μm) tap-water and irradiated pelleted laboratory chow (ref. A04, U.A.R., France) throughout the study. They were housed 5 per cage and a 21-day acclimatization period was observed.
# The mice were treated during 14 consecutive days (T1 to T14), with morning and afternoon gavages with the various treatments as described below.
# At T15, the mice were weighed and blood samples collected without anticoagulant by retro-orbital puncture under CO2/O2 anesthesia.
# Triglycerides were measured at T0 and T15 using the multi-parametric analyzer.
# Veh/Veh=Vehicle in morning/Vehicle in the afternoon
# A300/Veh=metformin, 300 mg/kg in the morning/Vehicle in the afternoon
# B100/B100=fenofibrate, 100 mg/kg in the morning/fenofibrate, 100 […]
# A300B100/B100=metformin, 300 mg/kg in the morning, and fenofibrate, 100 mg/kg in the morning/fenofibrate, 100 mg/kg in the afternoon
# A100/Veh=metformin, 100 mg/kg in the morning/Vehicle in the afternoon
# B30/B30=fenofibrate, 30 mg/kg in the morning/fenofibrate, 30 mg/kg in the afternoon
# A100B30/B30=metformin, 100 mg/kg in the morning, and fenofibrate, 30 mg/kg […]/fenofibrate, 30 mg/kg in the afternoon
# Zucker rats = settings: obese Zucker rats, 30 days, fenofibrate 30 mg/kg p.o. once daily and/or metformin 150 mg/kg p.o. twice daily; for Body weight gain: mean ± SEM, n=8
# Procedure: Studies were designed to evaluate the effects of fenofibrate, a PPARα agonist, and metformin as a combination therapy, on body weight in Zucker rats.
# Male homozygous Zucker rats of 9 to 11 weeks of age and their lean controls were randomised into groups of 8, based on body weight and fasting plasma insulin levels.
# The experimental groups were: • Lean rats, untreated; • Obese rats, treated with the vehicle p.o., twice daily • Obese rats, treated with Fenofibrate, 30 mg/kg, p.o., once daily • Obese rats, treated with Metformin, 150 mg/kg, p.o., twice daily • Obese rats, treated with Fenofibrate, 30 mg/kg, p.o., once daily and metformin, 150 mg/kg, p.o., twice daily.
# Body weight was recorded every day during 30 days.
# ob/ob mice = settings: for Serum triglycerides T0 + 10: after 10 days of treatment once a day, 100 mg/kg of each drug; for Serum triglycerides T0 + 10 / Serum triglycerides T0: mean ± sem, n=10; for Serum triglycerides T0: beginning of study (T0, baseline), groups later treated once a day with 100 mg/kg of each drug
# Procedure: Studies were designed to evaluate the effects of fenofibrate, a PPARα agonist, and metformin as a combination therapy, on triglycerides level in ob/ob mice.
# Male homozygous C57BL/Ks/Ola/Hsd/lep ob/ob mice were stabilized for 2 weeks in the animal facilities in a temperature-, humidity- and light-controlled room (21-23° C., 12-12 h light-dark cycle). […] After acclimatization, they were randomized into groups of 10 based on body weight, as follows:
# Met 100=mice treated once a day with metformin, 100 mg/kg
# Feno 100=mice treated once a day with fenofibrate, 100 mg/kg
# Feno100-Met100=mice treated once a day with fenofibrate, 100 mg/kg and metformin, 100 mg/kg.
# Serum triglycerides (expressed in g/l) were measured at the beginning and the end of the study for each group.
# Statistics: All data were subjected to covariance analysis followed by Tukey test.
# [1] = metformin 100 mg/kg morning and/or fenofibrate 30 mg/kg twice daily
# [2] = metformin 300 mg/kg morning and/or fenofibrate 100 mg/kg morning and afternoon
# [3] = high-dose groups: metformin 300 mg/kg morning and/or fenofibrate 100 mg/kg morning and afternoon
# [4] = low-dose groups: metformin 100 mg/kg morning and/or fenofibrate 30 mg/kg twice daily
Structure (SMILES),Triglycerides % var. T0/T15 (db/db mice; [1]),Triglycerides % var. T0/T15 (db/db mice; [2]),Triglycerides T0 (db/db mice; [3]) [g/L],Triglycerides T0 (db/db mice; [4]) [g/L],Triglycerides T15 (db/db mice; [1]),Triglycerides T15 (db/db mice; [2]) [g/L],Body weight gain (% of change vs vehicle treated group) (Zucker rats) [%],Body weight gain (Zucker rats) [g],Serum triglycerides T0 + 10 (ob/ob mice) [g/L],Serum triglycerides T0 (ob/ob mice) [g/L],Effect on triglycerides level (in words) (db/db mice; 14 days treatment),"Effect on triglycerides level (in words) (ob/ob mice; 10 days, 100 mg/kg once a day)"
"CC(C)OC(=O)C(C)(C)Oc1ccc(C(=O)c2ccc(Cl)cc2)cc1 [Fenofibrate, fenofibrate]",−42.3* %,−53.5* %,1.89 ± 0.13,1.72 ± 0.12,0.97 ± 0.08 g/L,0.85 ± 0.08,−26,52.0 ± 5.8,0.69 ± 0.03,0.72 ± 0.06,,
"CN(C)C(=N)N=C(N)N [Metformin, metformin]",7.3° %,−3.3° %,1.81 ± 0.14,1.68 ± 0.12,1.79 ± 0.16° g/l,1.67 ± 0.06,−5,67.2 ± 4.0,0.74 ± 0.04,0.68 ± 0.03,no reduction in triglycerides level,no effects
